Measurements: ChEMBL document CHEMBL1909046, “DrugMatrix in vitro pharmacology data”
Where a SMILES comes first, the peptide text is derived from it. Bridges are numbered along the chain shown (N, C = ends). [ ]: non-standard residue; d: D form. The star is where a group is joined. Threoninol(2S,3R) = C[C@@H](O)[C@H](CO)N*

Legend:
Glucocorticoid receptor = molecular target: T1, Glucocorticoid receptor (Homo sapiens, UniProt P04150); conditions: hela s3
T1 sequence (P04150 whole entry): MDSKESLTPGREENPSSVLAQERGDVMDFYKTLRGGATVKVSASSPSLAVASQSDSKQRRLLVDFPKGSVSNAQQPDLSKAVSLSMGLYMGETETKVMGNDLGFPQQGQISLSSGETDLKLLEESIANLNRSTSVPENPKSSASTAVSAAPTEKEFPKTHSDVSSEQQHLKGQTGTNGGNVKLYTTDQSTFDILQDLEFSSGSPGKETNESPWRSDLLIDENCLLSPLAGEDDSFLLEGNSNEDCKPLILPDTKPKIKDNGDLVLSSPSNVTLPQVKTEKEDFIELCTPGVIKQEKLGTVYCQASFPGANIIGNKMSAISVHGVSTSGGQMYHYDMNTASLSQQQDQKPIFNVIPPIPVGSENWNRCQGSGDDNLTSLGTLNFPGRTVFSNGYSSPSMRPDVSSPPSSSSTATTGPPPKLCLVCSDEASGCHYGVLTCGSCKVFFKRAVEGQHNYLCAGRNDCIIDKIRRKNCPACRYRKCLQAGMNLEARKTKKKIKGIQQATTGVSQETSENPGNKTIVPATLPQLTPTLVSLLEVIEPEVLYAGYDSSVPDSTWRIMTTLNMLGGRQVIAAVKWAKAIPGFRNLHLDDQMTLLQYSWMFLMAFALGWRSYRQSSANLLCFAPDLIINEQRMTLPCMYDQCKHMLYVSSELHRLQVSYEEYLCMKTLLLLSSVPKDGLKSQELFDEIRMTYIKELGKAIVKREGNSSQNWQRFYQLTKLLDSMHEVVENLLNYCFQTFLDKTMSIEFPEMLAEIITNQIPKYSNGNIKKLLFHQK

Cytochrome P450 2D6 = Cytochrome P450 2D6 (Homo sapiens, UniProt P10635)
Cytochrome P450 2C19 = Cytochrome P450 2C19 (Homo sapiens, UniProt P33261)
Androgen receptor = molecular target: T2, Androgen receptor (Rattus norvegicus, UniProt P15207)
T2 sequence (P15207 whole entry): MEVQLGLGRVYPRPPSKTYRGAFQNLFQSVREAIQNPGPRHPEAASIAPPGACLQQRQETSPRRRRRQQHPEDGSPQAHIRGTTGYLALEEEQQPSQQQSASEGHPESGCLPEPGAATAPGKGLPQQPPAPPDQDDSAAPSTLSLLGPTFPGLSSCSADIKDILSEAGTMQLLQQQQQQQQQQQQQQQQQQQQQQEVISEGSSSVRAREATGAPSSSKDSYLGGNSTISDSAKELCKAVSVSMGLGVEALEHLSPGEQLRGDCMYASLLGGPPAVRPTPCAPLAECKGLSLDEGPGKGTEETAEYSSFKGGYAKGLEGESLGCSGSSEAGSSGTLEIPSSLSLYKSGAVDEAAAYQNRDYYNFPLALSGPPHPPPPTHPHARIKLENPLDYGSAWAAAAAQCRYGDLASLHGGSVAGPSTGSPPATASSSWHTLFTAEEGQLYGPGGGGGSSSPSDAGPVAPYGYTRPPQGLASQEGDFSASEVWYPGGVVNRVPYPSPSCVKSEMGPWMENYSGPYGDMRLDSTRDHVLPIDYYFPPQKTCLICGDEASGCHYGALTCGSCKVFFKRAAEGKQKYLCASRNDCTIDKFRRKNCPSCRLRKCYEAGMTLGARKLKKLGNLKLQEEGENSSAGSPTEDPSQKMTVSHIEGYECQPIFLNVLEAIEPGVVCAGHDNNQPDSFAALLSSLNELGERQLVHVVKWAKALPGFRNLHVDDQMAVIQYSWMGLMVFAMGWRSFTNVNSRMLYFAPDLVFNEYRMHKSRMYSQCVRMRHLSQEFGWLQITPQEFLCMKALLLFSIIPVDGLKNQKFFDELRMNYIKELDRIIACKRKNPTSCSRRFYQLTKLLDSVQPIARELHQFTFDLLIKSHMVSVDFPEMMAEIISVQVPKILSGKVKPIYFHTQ
Further: in other assays of this panel Not Active means under 50% inhibition at 10 µM.

Chain of Cytochrome P450 2D6 (P10635 whole entry): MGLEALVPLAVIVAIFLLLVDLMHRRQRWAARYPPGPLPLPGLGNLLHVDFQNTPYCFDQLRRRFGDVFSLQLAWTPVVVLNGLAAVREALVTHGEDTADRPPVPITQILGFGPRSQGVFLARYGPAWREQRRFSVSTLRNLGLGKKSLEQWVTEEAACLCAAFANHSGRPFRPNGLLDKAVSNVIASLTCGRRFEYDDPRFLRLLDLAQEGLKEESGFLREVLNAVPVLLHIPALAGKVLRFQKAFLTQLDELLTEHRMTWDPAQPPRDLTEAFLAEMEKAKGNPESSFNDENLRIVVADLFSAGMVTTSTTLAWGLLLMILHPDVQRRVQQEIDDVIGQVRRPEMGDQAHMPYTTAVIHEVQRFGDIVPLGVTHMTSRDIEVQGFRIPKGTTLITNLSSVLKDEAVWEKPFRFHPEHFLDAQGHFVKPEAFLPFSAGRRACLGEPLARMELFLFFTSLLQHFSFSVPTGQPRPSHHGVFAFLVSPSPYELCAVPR
Chain of Cytochrome P450 2C19 (P33261 whole entry): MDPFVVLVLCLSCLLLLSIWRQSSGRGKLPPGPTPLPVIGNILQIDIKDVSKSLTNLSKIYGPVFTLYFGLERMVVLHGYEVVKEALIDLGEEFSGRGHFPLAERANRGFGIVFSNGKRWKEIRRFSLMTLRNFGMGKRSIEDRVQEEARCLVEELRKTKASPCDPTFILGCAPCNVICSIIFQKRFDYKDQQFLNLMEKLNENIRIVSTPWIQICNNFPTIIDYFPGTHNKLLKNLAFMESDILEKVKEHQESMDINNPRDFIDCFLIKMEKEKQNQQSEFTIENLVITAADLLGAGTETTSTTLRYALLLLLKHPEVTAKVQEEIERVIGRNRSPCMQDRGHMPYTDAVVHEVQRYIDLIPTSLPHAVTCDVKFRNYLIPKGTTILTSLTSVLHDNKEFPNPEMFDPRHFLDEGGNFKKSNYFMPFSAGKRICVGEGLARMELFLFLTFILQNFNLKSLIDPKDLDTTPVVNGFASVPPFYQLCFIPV

Row | Structure (SMILES) | IC50 (Glucocorticoid receptor) | IC50 (Androgen receptor) | also measured
1 | O=C1CC[C@H](N2C(=O)c3ccccc3C2=O)C(=O)N1 | Not Active | – | –
2 | N=C(Nc1ccccc1)Nc1ccccc1 | Not Active | – | IC50 (Cytochrome P450 2D6): 3440 nM
3 | C[C@@H](O)[C@H](CO)NC(=O)[C@@H]1CSSC[C@H](NC(=O)[C@H](N)Cc2ccccc2)C(=O)N[C@@H](Cc2ccccc2)C(=O)N[C@H](Cc2c[nH]c3ccccc23)C(=O)N[C@@H](CCCCN)C(=O)N[C@@H]([C@@H](C)O)C(=O)N1 (H-[dF]CF[dW]KTC-{Threoninol(2S,3R)}; disulfide 2-7) | Not Active | – | –
4 | C[C@](O)(CS(=O)(=O)c1ccc(F)cc1)C(=O)Nc1ccc(C#N)c(C(F)(F)F)c1 [(R)-BICALUTAMIDE] | Not Active | – | IC50 (Cytochrome P450 2C19): 1000 nM
5 | CCCC(=O)Nc1ccc(OCC(O)CNC(C)C)c(C(C)=O)c1 (stereo unspecified) [ACEBUTOLOL] | Not Active | – | –
6 | CC(=O)Nc1ccc(O)cc1 [ACETAMINOPHEN] | – | Not Active | –
7 | COc1cc2c(c3oc(=O)c4c(c13)CCC4=O)[C@@H]1C=CO[C@@H]1O2 [AFLATOXIN] | Not Active | Not Active | Ki (Androgen receptor): Not Active; Ki (Glucocorticoid receptor): Not Active
8 | N=C(N)NC(=O)c1nc(Cl)c(N)nc1N [AMILORIDE] | Not Active | – | –
9 | Cc1cc(=O)n(-c2ccccc2)n1C [ANTIPYRINE] | – | Not Active | –
10 | CCOC(=O)[C@H](CCc1ccccc1)N[C@H]1CCc2ccccc2N(CC(=O)O)C1=O [BENAZEPRIL] | Not Active | – | –
11 | CCCCN1CCCCC1C(=O)Nc1c(C)cccc1C.Cl (stereo unspecified) [BUPIVACAINE HYDROCHLORIDE] | – | Not Active | IC50 (Cytochrome P450 2D6): 400 nM
12 | O=C1CC2(CCCC2)CC(=O)N1CCCCN1CCN(c2ncccn2)CC1 [BUSPIRONE] | – | Not Active | –
13 | C[C@@]12C(=O)OC(=O)[C@]1(C)[C@H]1CC[C@@H]2O1 [CANTHARIDIN] | Not Active | – | –
14 | O=NN(CCCl)C(=O)NCCCl [CARMUSTINE] | Not Active | Not Active | –
15 | CC1=C(C(=O)O)N2C(=O)[C@@H](NC(=O)[C@H](N)c3ccccc3)[C@H]2SC1 [CEPHALEXIN ANHYDROUS] | Not Active | – | –
16 | ClC(Cl)Cl [CHLOROFORM] | Not Active | – | –
17 | C=C1CC[C@H](O)C/C1=C/C=C1\CCC[C@]2(C)[C@@H]([C@H](C)CCCC(C)C)CC[C@@H]12 [CHOLECALCIFEROL] | Not Active | – | –
18 | CCOC(=O)C(C)(C)Oc1ccc(Cl)cc1 [CLOFIBRATE] | Not Active | – | –
19 | CC(=O)OCC(=O)[C@@]1(O)CC[C@H]2[C@@H]3CCC4=CC(=O)CC[C@]4(C)[C@H]3C(=O)C[C@@]21C [CORTISONE ACETATE] | – | Not Active | –
20 | CN(C)/N=N/c1[nH]cnc1C(N)=O [DACARBAZINE] | Not Active | – | –
21 | COc1ccc2c(c1)[C@]13CCCC[C@@H]1[C@H](C2)N(C)CC3 [DEXTROMETHORPHAN] | Not Active | – | –
22 | CC(=O)Nc1c(I)c(NC(C)=O)c(I)c(C(=O)O)c1I [DIATRIZOIC ACID] | Not Active | – | –
23 | O=C(O)Cc1ccccc1Nc1c(Cl)cccc1Cl [DICLOFENAC] | – | Not Active | –
24 | C[C@H]1O[C@@H](O[C@H]2[C@@H](O)C[C@H](O[C@H]3[C@@H](O)C[C@H](O[C@H]4CC[C@@]5(C)[C@H](CC[C@@H]6[C@@H]5CC[C@]5(C)[C@@H](C7=CC(=O)OC7)CC[C@]65O)C4)O[C@@H]3C)O[C@@H]2C)C[C@H](O)[C@@H]1O [DIGITOXIN] | Not Active | Not Active | –
25 | CCN1CC(CCN2CCOCC2)C(c2ccccc2)(c2ccccc2)C1=O (stereo unspecified) [DOXAPRAM] | Not Active | – | IC50 (Cytochrome P450 2D6): 100 nM
26 | Cn1c(=O)c2c(ncn2CC2OCCO2)n(C)c1=O [DOXOFYLLINE] | – | Not Active | –
27 | COc1cccc2c1C(=O)c1c(O)c3c(c(O)c1C2=O)C[C@@](O)(C(=O)CO)C[C@@H]3O[C@H]1C[C@H](N)[C@H](O)[C@H](C)O1 [DOXORUBICIN] | Not Active | – | –
